Assay results from US6921775B2, “Methods for modulating brain damage” (Children's Medical Center Corporation, priority 2001, dated 2005).

System: AMPA receptors in cerebral white matter
Test: Intracerebral AMPA injection white matter injury
Assay type: in vivo
Experimental: The methods used in this example are described in Follett et al. (2000) J. Neurosci. 20:9235-9241, incorporated by reference herein.
NBQX attenuation of the selective white matter injury after hypoxia/ischemia implicated GluR-mediated toxicity as an important mechanism of injury in immature OLs. To confirm a relationship between the activation of AMPA receptors in cerebral white matter and the vulnerability to injury, AMPA was injected directly into immature white matter. […] Minimal to no injury was present in vehicle-injected controls (M K801 alone; n=7) at the same age (t test, p<0.001).
To determine whether AMPA toxicity was age dependent, lesion size after intracerebral AMPA injections at P4, P7, and P11 was compared.

Cc1o[nH]c(=O)c1CC(N)C(=O)O (centres unmarked) [AMPA]
white matter injury after intracerebral injection (P7 rat pups, 5 nmol of AMPA plus 5 nmol of MK-801, vs MK-801 alone p<0.001): produced white matter injury | white matter injury (pericallosal lesion size) after injection at P4 and P11 compared with P7 (intracerebral AMPA, one-way ANOVA p<0.001): significantly less white matter injury
